# Reference: US9920030B2 (priority 2006, dated 2018)
# Where two headings read alike, the source gives them in different places.
# Legend:
# [1] = test system: Plasmopara vilicola (the causal agent of grape downy mildew); experiment: Test A: grape downy mildew, test suspension sprayed on grape seedlings after inoculation, visual disease rating; assay type: in vivo; conditions: for pest or weed control at 40 ppm: Plasmopara, 144 h, read-out: Percent Disease Control, Test A
# Procedure, shortened: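 Curative spray: spores applied first, plants kept 24 h in saturated air at 20 °C and dried before treatment, then 5 days at 20 °C plus 24 h saturated. Suspension: acetone (3% of volume) in 1:1 acetone/water, 250 ppm Trem 014, sprayed to run-off (200 ppm ≈ 500 g/ha); visual 0–100 control rating.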
# [2] = test system: Phytophthora infestans (the causal agent of tomato late blight); experiment: whole plant or invertebrate; assay type: in vivo; conditions: for pest or weed control at 40 ppm: Phytophthora infestans, 144 h, read-out: Percent Disease Control, Test B
# [3] = test system: Phytophthora infestans (the causal agent of tomato late blight); experiment: whole plant or invertebrate; assay type: in vivo; conditions: for pest or weed control at 40 ppm: Phytophthora infestans, 96 h, read-out: Percent Disease Control, Test C
SMILES,melting point [°C],pest or weed control at 40 ppm ([1]; * tested at 40 ppm) [%],pest or weed control at 40 ppm [2] [%],pest or weed control at 40 ppm [3] [%],further results
"Cc1cc(C(F)(F)F)nn1CC(=O)N1CCC(c2nc(C3=NOC(C)(c4ccccc4)C3)cs2)CC1 (centres unmarked) [Compound 15, 1-[4-[4-(4,5-dihydro-5-methyl-5-phenyl-3-isoxazolyl)-2-thiazolyl]-1-piperidinyl]-2-[5-methyl-3-(trifluoromethyl)-1H-pyrazol-1-yl]ethanone]",97 to 100,–,–,–,–
"Cc1cc(C(F)(F)F)nn1CC(=O)N1CCC(c2nc(C3=NOC4c5ccccc5CCC34)cs2)CC1 (centres unmarked) [Compound 16, 2-[5-methyl-3-(trifluoromethyl)-1H-pyrazol-1-yl]-1-[4-[4-(3a,4,5,9b-tetrahydronaphth[2,1-d]isoxazol-3-yl)-2-thiazolyl]-1-piperidinyl]ethanone]",162 to 165,–,–,–,–
"COc1ccc(C2CC(c3csc(C4CCN(C(=O)Cn5nc(C(F)(F)F)cc5C)CC4)n3)=NO2)cc1 (centres unmarked) [Compound 18, 1-[4-[4-[4,5-dihydro-5-(4-methoxyphenyl)-3-isoxazolyl]-2-thiazolyl]-1-piperidinyl]-2-[5-methyl-3-(trifluoromethyl)-1H-pyrazol-1-yl]ethanone]",119 to 124,100,100,99,–
"CCc1cc(C(F)(F)F)nn1CC(=O)N1CCC(c2nc(C3=NOC(c4ccccc4)C3)cs2)CC1 (centres unmarked) [Compound 19, 1-[4-[4-(4,5-dihydro-5-phenyl-3-isoxazolyl)-2-thiazolyl]-1-piperidinyl]-2-[5-ethyl-3-(trifluoromethyl)-1H-pyrazol-1-yl]ethanone]",128 to 133,100,100,99,–
"O=C(Cn1nc(C(F)(F)F)cc1C(F)(F)F)N1CCC(c2nc(C3=NOC(c4ccccc4)C3)cs2)CC1 (centres unmarked) [Compound 22, 2-[3,5-bis(trifluoromethyl)-1H-pyrazol-1-yl]-1-[4-[4-(4,5-dihydro-5-phenyl-3-isoxazolyl)-2-thiazolyl]-1-piperidinyl]ethanone]",130 to 133,100,100,99,–
Cc1cc(C(F)(F)F)nn1CC(=O)N1CCC(c2nc(C3=NOC(N4C(=O)N(C)C(=O)C(C)(C)C4=O)C3)cs2)CC1 (centres unmarked) [Compound 279],–,–,–,–,"Percent Disease Control, Test A ([1]; * tested at 40 ppm): 100%; Percent Disease Control, Test B ([2]; * tested at 40 ppm): 100%; Percent Disease Control, Test C ([3]; * tested at 40 ppm): 99%"
Cc1cc(C(F)(F)F)nn1CC(=O)N1CCC(c2nc(C3=NOC(n4c(=O)sc5ccc(Cl)cc54)C3)cs2)CC1 (centres unmarked) [Compound 280],–,–,–,–,"Percent Disease Control, Test A ([1]; ** tested at l0 ppm): 92%; Percent Disease Control, Test B ([2]; ** tested at l0 ppm): 100%; Percent Disease Control, Test C ([3]; ** tested at l0 ppm): 98%"
